Data on eleven compounds can be found in patent US10294244B2, “2,3-dihydro-thiazolo[3,2-A]pyridin-5-one derivatives, intermediates thereof, and their use as antibacterial agents” (Quretech Bio AB, priority 2014, dated 2019).

This assay relates to C. trachomatis serovar LGV-L2. As to the kind of experiment: Inhibition of infectious Chlamydia progenies (C. trachomatis infectivity, reinfection of HeLa cells, IFU count). The format is cell-based. The settings on record: infected HeLa cells, MOI 0.3, compound added 1 hpi, 44-48 h, relative to DMSO-treated control; for inhibition at 10 µM: 10 uM compound; for inhibition at 50 µM: 50 uM compound; for inhibition at 100 µM: 100 uM compound. Here is the method:
Cell Culture, C. trachomatis Infections, and Determination of C. trachomatis Infectivity.
HeLa cells were infected with C. trachomatis serovar LGV-L2 at an MOI of 0.3. At 1 hpi, RPMI media containing the different dilutions of the tested compounds in DMSO were added. The different compounds were dissolved to 20 mM in DMSO and were then diluted with RPMI media to be added at 2.5 to 100 μM. After 44-48 h incubation, the cells were osmotically lysed by the addition of cold sterile distilled water to release infectious EB progeny. 5×SPG was added to equalize the osmotic pressure to a 1×SPG isotonic condition. An equal amount of HBSS (Hanks balanced salt solution) (Gibco/Invitrogen) was added to the lysate (yielding a 1:1 dilution) and 10-fold serial dilutions of the resulting mixture was used to infect fresh HeLa cells. At 1 hpi, the inoculum was replaced with RPMI media and the infection allowed to progress for 44-48 hours before fixation and staining. Fixation was performed by adding methanol for 5 minutes and the cells were subsequently washed with phosphate buffered saline (PBS). The chlamydial inclusions were stained by a primary rabbit anti-Chlamydia antibody (generated in-house) and a secondary donkey anti-rabbit FITC-labelled antibody (Jackson ImmunoResearch). The DNA of the cells and Chlamydia was stained by the addition of DAPI. The stained cells were analyzed by an ArrayScan automated scanner (ArrayScan VTI HCS, Thermo Scientific). Data were presented as the relative numbers of IFUs in treated infections compared to the numbers of IFUs in DMSO-treated control infections.
The compounds of Examples 1-33 were tested for inhibition of infectious Chlamydia progenies at concentrations of 2.5 μM, 10 μM, 50 μM and 100 μM. In this document μM stands for micromolar. The compounds of the present disclosure were considered to have antibacterial activity if they provided 50% or more inhibition of infectious Chlamydia progenies using at least one of the tested concentrations in Table 1.

Each structure is given as a SMILES string.

In the case of `CC(C)Nc1c(Cc2cccc3ccccc23)cc(=O)n2c1SC[C@H]2C(=O)Nc1ccccc1` [Example 23, Anilino{7-(isopropylamino)-6-[(1-naphthyl)methyl]-4-oxo-1-thia-3a-aza-3-indanyl}formaldehyde], the inhibition (as a rule, the relative decrease from the control value, in per cent) at 10 µM was 98% and at 50 µM the inhibition was 98%.
As for `CN(C)c1c(Cc2cccc3ccccc23)cc(=O)n2c1SC[C@H]2C(=O)Nc1ccccc1` [Example 24, {(3R)-7-(Dimethylamino)-6-[(1-naphthyl)methyl]-4-oxo-1-thia-3a-aza-3-indanyl}anilinoformaldehyde], the inhibition at 10 µM is 98% and 50 µM produced 99% inhibition.
The matching figures for `CS(=O)(=O)Nc1c(Cc2cccc3ccccc23)cc(=O)n2c1SC[C@H]2C(=O)Nc1ccccc1` [Example 25, Anilino{7-(methylsulfonylamino)-6-[(1-naphthyl)methyl]-4-oxo-1-thia-3a-aza-3-indanyl}formaldehyde]: 97% and 97%.
`CC(=O)Nc1c(Cc2cccc3ccccc23)cc(=O)n2c1SC[C@H]2C(=O)Nc1ccccc1` [Example 26, 1-{3-Anilinocarbonyl-6-[(1-naphthyl)methyl]-4-oxo-1-thia-3a-aza-7-indanylamino}-1-ethanone] registered an inhibition at 10 µM of 54% and an inhibition at 50 µM of 87%.
In turn, `COC(=O)Nc1c(Cc2cccc3ccccc23)cc(=O)n2c1SC[C@H]2C(=O)Nc1ccccc1` [Example 27, {(3R)-7-(Methoxycarbonylamino)-6-[(1-naphthyl)methyl]-4-oxo-1-thia-3a-aza-3-indanyl}anilinoformaldehyde] returned an inhibition at 10 µM of 96% and an inhibition at 50 µM of 98%.
`O=C(O)[C@@H]1CSc2c(OCC3CC3)c(Cc3cccc4ccccc34)cc(=O)n21` [Example 28, (3R)-7-(Cyclopropylmethoxy)-6-[(1-naphthyl)methyl]-4-oxo-1-thia-3a-aza-3-indancarboxylic acid] registered an inhibition at 100 µM of 56%.
Same read-out and setting: under `O=C(O)[C@@H]1CSc2c(C(F)(F)F)c(Cc3cccc4ccccc34)cc(=O)n21` [Example 29, (3R)-6-[(1-Naphthyl)methyl]-4-oxo-7-(trifluoromethyl)-1-thia-3a-aza-3-indancarboxylic acid] stands 56%.
With `CC(C)COc1c(Cc2cccc3ccccc23)cc(=O)n2c1SC[C@H]2C(=O)O` [Example 30, (3R)-7-Isobutoxy-6-[(1-naphthyl)methyl]-4-oxo-1-thia-3a-aza-3-indancarboxylic acid], the inhibition at 50 µM worked out at 67% and the inhibition at 100 µM was 90%.
The matching figures for `Cc1cccc(Cc2cc(=O)n3c(c2N(C)C)SC[C@H]3C(=O)O)c1C` [Example 31, (3R)-7-(Dimethylamino)-4-oxo-6-[(2,3-xylyl)methyl]-1-thia-3a-aza-3-indancarboxylic acid]: 29% and 86%.
In turn, `Cc1ccc(Cc2cc(=O)n3c(c2N(C)C)SC[C@H]3C(=O)O)c2ccccc12` [Example 32, (3R)-7-(Dimethylamino)-6-[(4-methyl-1-naphthyl)methyl]-4-oxo-1-thia-3a-aza-3-indancarboxylic acid] returned an inhibition at 50 µM of 91% and an inhibition at 100 µM of 99%.
On to `CC(C)Nc1c(Cc2cccc3ccccc23)cc(=O)n2c1SC[C@H]2C(=O)O` [Example 33, (3R)-7-(Isopropylamino)-6-[(1-naphthyl)methyl]-4-oxo-1-thia-3a-aza-3-indancarboxylic acid], for which the inhibition at 100 µM was 50%.
